Test [1] deals with KB. Description: Cytotoxicity against human KB cells. The format is functional, cell-based.
A short description of test [2]: Inhibition of tubulin assembly into microtubules.

In brackets after ≈: the same amount, converted by molar mass.

As to `COc1c(O)c(OC)c(C(=O)[C@@H]2CC(CCC=C(C)C)=CC[C@H]2c2ccccc2)c(O)c1OC` [ISOFISSISTIN], in test [1], the IC50 amounted to 0.15 µg/mL (≈ 0.321 µM).
On the same count and under the same terms, for `COc1c(O)c(OC)c(C(=O)[C@@H]2CC=C(CCC=C(C)C)C[C@H]2c2ccccc2)c(O)c1OC` [FISSISTIN] the value was 0.15 µg/mL (≈ 0.321 µM).
Compound `COc1c(O)c(OC)c(C(=O)/C=C/c2ccccc2)c(O)c1OC` [PEDICIN] displayed an IC50 in test [2] of 300 µM.
Same read-out and setting: next, `CC[C@]1(O)C[C@@H]2CN(CCc3c([nH]c4ccccc34)[C@@](C(=O)OC)(c3cc4c(cc3OC)N(C)[C@H]3[C@@](O)(C(=O)OC)[C@H](OC(C)=O)[C@]5(CC)C=CCN6CC[C@]43[C@@H]65)C2)C1` [VINBLASTINE]: 4 µM.

Source of the values: ChEMBL document CHEMBL1159278, “An antimitotic and cytotoxic chalcone from Fissistigma lanuginosum” (J Nat Prod, 1995).
